The target in assay [1] is Sodium-dependent dopamine transporter (Rattus norvegicus, UniProt P23977). The assay is described as follows: Inhibition of […] binding to the dopamine transporter in rat striatal membranes. The format is cell membranes, Membrane.
The target of assay [2] is Sodium-dependent dopamine transporter (Rattus norvegicus) (UniProt P23977). The assay is described as follows: In vitro ability to inhibit the [3H]WIN-35428 binding to cocaine binding site on dopamine transporter in rat striatal membranes irreversibly after no wash. In kind it is cell membranes. Also on record: concentration or dose not given beside the values. Particulars: Striatum; Membrane.

Assay [3] shares this target. The assay is described as follows: In vitro ability to inhibit the [3H]WIN-35428 binding to cocaine binding site on dopamine transporter in rat striatal membranes irreversibly after one wash. The format is cell membranes. Also on record: concentration or dose not given beside the values. The note with it: Striatum; Membrane.
Assay [4] shares this target. The assay is described as follows: In vitro ability to inhibit the [3H]WIN-35428 binding to cocaine binding site on dopamine transporter in rat striatal membranes irreversibly after three washes. The format is cell membranes. Further details: concentration or dose not given beside the values. Particulars: Striatum; Membrane.
The target is the same in assay [5]. The assay is described as follows: In vitro ability to inhibit the [3H]WIN-35428 binding to cocaine binding site on dopamine transporter in rat striatal membranes irreversibly after two washes. In kind it is cell membranes. Also on record: concentration or dose not given beside the values. Particulars: Striatum; Membrane.

Results on 17 compounds are retold here after ChEMBL document CHEMBL1126040 (J Med Chem, 1992).

Chain of Sodium-dependent dopamine transporter (P23977 whole entry): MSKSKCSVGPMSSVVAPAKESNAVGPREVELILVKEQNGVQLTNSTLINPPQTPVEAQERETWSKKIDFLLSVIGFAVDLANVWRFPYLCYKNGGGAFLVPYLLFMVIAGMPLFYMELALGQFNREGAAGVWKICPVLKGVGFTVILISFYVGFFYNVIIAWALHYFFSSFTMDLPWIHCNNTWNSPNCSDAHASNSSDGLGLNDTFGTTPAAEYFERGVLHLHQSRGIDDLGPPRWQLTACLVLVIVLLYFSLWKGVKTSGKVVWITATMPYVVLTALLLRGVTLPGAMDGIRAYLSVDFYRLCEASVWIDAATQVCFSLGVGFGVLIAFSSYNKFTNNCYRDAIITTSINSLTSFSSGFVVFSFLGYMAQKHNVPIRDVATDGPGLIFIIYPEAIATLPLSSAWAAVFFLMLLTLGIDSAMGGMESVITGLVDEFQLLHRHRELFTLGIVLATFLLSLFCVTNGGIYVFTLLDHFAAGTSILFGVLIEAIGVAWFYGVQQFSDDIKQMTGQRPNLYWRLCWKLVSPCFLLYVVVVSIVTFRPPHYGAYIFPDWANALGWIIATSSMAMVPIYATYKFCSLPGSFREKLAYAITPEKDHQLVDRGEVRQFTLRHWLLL
Chain of Sodium-dependent dopamine transporter (Rattus norvegicus) (P23977 whole entry): as above

`CN1C2CC[C@@H]1C[C@H](c1ccc(Cl)cc1)[C@@H]2C(=O)OCCc1ccc(N=[N+]=[N-])cc1` yielded an IC50 in assay [1] of 6.17 nM. Moreover, the Control in assay [2] was determined as 21%; in assay [3], 19%; in assay [4], 26%; in assay [5], 24%.

With `CN1C2CC[C@@H]1C[C@H](c1ccc(Cl)cc1)[C@@H]2C(=O)OCCc1ccc(N)cc1`, the IC50 in assay [1] came out at 2.16 nM.

Consider `CN1C2CC[C@@H]1C[C@H](c1ccc(Cl)cc1)[C@@H]2C(=O)OCCc1ccc(N=C=S)cc1`, for which the IC50 in assay [1] is 5.3 nM. In addition, the Control in assay [2] worked out at 24%; in assay [3], 29%; in assay [4], 30%; in assay [5], 26%.

On to `CN1C2CC[C@@H]1C[C@H](OC(=O)c1ccccc1)[C@@H]2C(=O)OCCc1ccc(N=[N+]=[N-])cc1`, for which, in assay [1], the IC50 amounted to 227 nM. In addition, the Control in assay [2] turned out to be 23%; in assay [3] it was 30%; in assay [4], 49%; in assay [5] it was 45%.

On to `CN1C2CC[C@@H]1C[C@H](OC(=O)c1ccccc1)[C@@H]2C(=O)OCCc1ccc(N=C=S)cc1`, for which the half-maximal inhibitory concentration (IC50) in assay [1] was found to be 196 nM.

For the compound `CN1C2CC[C@@H]1C[C@H](OC(=O)c1ccccc1)[C@@H]2C(=O)OCCCc1ccccc1`, the half-inhibitory concentration (IC50) in assay [1] was 139 nM.

Compound `COC(=O)[C@@H]1C2CC[C@H](C[C@@H]1c1ccc(N=[N+]=[N-])c(I)c1)N2C` had an IC50 in assay [1] of 4.93 nM. The Control in assay [2] came to 0%; in assay [3], 2%; in assay [4], 5%; in assay [5] it was 5%.

On to `CN1C2CC[C@@H]1C[C@H](OC(=O)c1ccccc1)[C@@H]2C(=O)OCCc1ccc(NC(=O)CBr)cc1`, for which the IC50 in assay [1] was determined as 61 nM. Also, the Control in assay [2] is 22%; in assay [3], 34%; in assay [4] it was 38%; in assay [5], 33%.

`CN1C2CC[C@@H]1C[C@H](OC(=O)c1ccccc1)[C@@H]2C(=O)OCCc1ccc([N+](=O)[O-])cc1` showed an IC50 in assay [1] of 601 nM.

In assay [1], `COC(=O)[C@@H]1C2CC[C@H](C[C@@H]1c1ccc(N)c(I)c1)N2C` had an IC50 of 1.35 nM.

`CN1C2CC[C@@H]1C[C@H](OC(=O)c1ccccc1)[C@@H]2C(=O)OCCc1ccccc1`: the half-maximal inhibitory concentration (IC50) in assay [1] was found to be 248 nM.

In assay [1], `CN1C2CC[C@@H]1C[C@H](c1ccc(Cl)cc1)[C@@H]2C(=O)OCCc1ccc(N)c(I)c1` came in with a concentration for half-maximal inhibition (IC50) of 2.51 nM.

As for `CN1C2CC[C@@H]1C[C@H](OC(=O)c1ccccc1)[C@@H]2C(=O)OCCc1ccc(N)cc1`, in assay [1], the IC50 was determined as 72 nM.

`CN1C2CC[C@@H]1C[C@H](c1ccc(Cl)cc1)[C@@H]2C(=O)OCCc1ccc(NC(=O)CBr)cc1`: in assay [1], the concentration for half-maximal inhibition (IC50) was determined as 1.73 nM. The Control was 14% in assay [2], 23% in assay [3], 34% in assay [4] and 26% in assay [5].

On to `CN1C2CC[C@@H]1C[C@H](c1ccc(Cl)cc1)[C@@H]2C(=O)OCCc1ccc([N+](=O)[O-])cc1`, for which the 50% inhibitory concentration (IC50) in assay [1] is 2.71 nM.

Consider `COC(=O)[C@H]1[C@@H](OC(=O)c2ccccc2)C[C@@H]2CC[C@H]1N2C`, for which the Control was 43% in assay [2], 85% in assay [3] and 79% in assay [5].

Take `CN1C2CC[C@@H]1C[C@H](c1ccc(Cl)cc1)[C@@H]2C(=O)OCCc1ccc(N=[N+]=[N-])c(I)c1`: the 50% inhibitory concentration (IC50) in assay [1] came out at 14.5 nM. For the same compound, the Control in assay [2] was 14%; in assay [3], 14%; in assay [4], 16%; in assay [5] it was 22%.

Broadly, the IC50 is the concentration needed to halve the response being measured.
